{
  "source": "patent US10406150B2",
  "about": "“Method for treatment of primary hormone resistant endometrial and breast cancers” (Lipoxen Technologies Limited, priority 2014, dated 2019)",
  "system": "secondary PR negative Ishikawa cells",
  "assay": "Model of secondary PR-negative endometrial cancer (progestin-resistant Ishikawa xenograft)",
  "format": "in vivo, mice",
  "settings": "day 7; MPA 250 mg/kg/day i.p. 5 days per week, SC 0.3 mg/kg i.m. each alternate day; mean ± SEM",
  "experimental": "When the surviving cells had grown to a high density but were still less than confluent, cells were subcloned using 0.02% EDTA and 0.25% trypsin prepared in Hanks' balanced salt solution. MPA-containing medium was replaced every 2-3 days. Cells proliferating in 10 μM MPA with the same doubling time as the initial Ishikawa cells proliferating in the medium without MPA, were considered as secondary progestin-resistant Ishikawa cells.\n2×10^6 secondary PR negative Ishikawa cells were inoculated into the flanks of MF-1 female nude mice in 100 μl Matrigel.\n1) Vehicle control group: vehicle only, −0.9% sodium chloride for injection i.m each alternate day and i.p. for 5 days per week.\n2) MPA only control group: medroxyprogesterone acetate (MPA) (250 mg/kg/day) i.p. for 5 days per week.\nTumors were measured with vernier calipers weekly. Tumor volumes (mm^3) were calculated using the modified ellipsoid formula: (length (mm)×width (mm)^2)/2. The ratio (percentage) of “Tumor volume at day n” to “tumor volume at day “0” was calculated for each animal. At the end of the experiments (day 35) animals were euthanized.",
  "data": [
    {"smiles": "CC(=O)O[C@]1(C(C)=O)CC[C@H]2[C@@H]3C[C@H](C)C4=CC(=O)CC[C@]4(C)[C@H]3CC[C@@]21C", "note": "[MPA, medroxyprogesterone acetate]", "values": [
      {"measurement": "Tumor volume at day n/tumor volume at day “0”", "result": "170 ± 19", "unit": "%"}
    ]}
  ]
}
